#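 These data come from cells grown in 96-well plates and exposed to compound for 48 hours at five concentrations. TGI denotes the concentration required for complete inhibition of growth.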
# Legend:
# Test in all cases: NCI anticancer screen, dose series, 48 h
# [1] = system: SNB-75 CNS
# [2] = system: MDA-MB-435
# [3] = system: RPMI-8226 leukemia
# [4] = system: SK-MEL-2 melanoma
# [5] = system: MCF7 breast
# [6] = system: SF-295 CNS
# [7] = system: MOLT-4 leukemia
# [8] = system: K-562 leukemia
# [9] = system: NCI-H23 lung
# [10] = system: NCI-H226 lung
# [11] = system: SK-OV-3 ovarian
# [12] = system: BT-549 breast
# [13] = system: 786-0 renal
# [14] = system: RXF 393 renal
# [15] = system: HOP-62 NSCLC
# [16] = system: NCI/ADR-RES ovarian
# [17] = system: KM12 colon
# [18] = system: SF-268 CNS
# [19] = system: HS 578T breast
# [20] = system: MDA-MB-231 breast
# [21] = system: TK-10 renal
# [22] = system: A549 NSCLC
# [23] = system: HT29 colon
# [24] = system: HL-60(TB) leukemia
# [25] = system: DU-145 prostate
# [26] = system: PC-3 prostate
# [27] = system: A498 renal
# [28] = system: CCRF-CEM leukemia
# [29] = system: COLO 205 colon
# [30] = system: SK-MEL-28 melanoma
# [31] = system: OVCAR-4 ovarian
# [32] = system: MALME-3M melanoma
# [33] = system: IGROV1 ovarian
# [34] = system: ACHN renal
# [35] = system: HCC-2998 colon
# [36] = system: U251 CNS
# [37] = system: OVCAR-8 ovarian
# [38] = system: UO-31 renal
# [39] = system: UACC-257 melanoma
# [40] = system: M14 melanoma
# [41] = system: SW-620 colon
# [42] = system: NCI-H522 lung
# [43] = system: NCI-H460 lung
# [44] = system: SNB-19 CNS
# [45] = system: SN12C renal
# [46] = system: MDA-N
# [47] = system: T-47D breast
# [48] = system: LOX IMVI melanoma
# [49] = system: SK-MEL-5 melanoma
# [50] = system: SR leukemia
# [51] = system: EKVX NSCLC
# [52] = system: OVCAR-5 ovarian
# [53] = system: OVCAR-3 ovarian
# [54] = system: UACC-62 melanoma
# [55] = system: CAKI-1 renal
# [56] = system: HCT-15 colon
# [57] = system: HCT-116 colon
# [58] = system: HOP-92 NSCLC
# [59] = system: SF-539 CNS
structure (smiles),measurement,setting,value
CCOC(=O)N1CC2(C)C=CC1C(C(=O)OC)C2 (configuration not stated),TGI,[1],> 100 µM
same,TGI,[2],> 100 µM
same,TGI,[3],> 100 µM
same,TGI,[4],> 100 µM
same,TGI,[5],> 100 µM
same,TGI,[6],> 100 µM
same,TGI,[7],> 100 µM
same,TGI,[8],> 100 µM
same,TGI,[9],> 100 µM
same,TGI,[10],> 100 µM
same,TGI,[11],> 100 µM
same,TGI,[12],> 100 µM
same,TGI,[13],> 100 µM
same,TGI,[14],> 100 µM
same,TGI,[15],> 100 µM
same,TGI,[16],> 100 µM
same,TGI,[17],> 100 µM
same,TGI,[18],> 100 µM
same,TGI,[19],> 100 µM
same,TGI,[20],> 100 µM
same,TGI,[21],> 100 µM
same,TGI,[22],> 100 µM
same,TGI,[23],> 100 µM
same,TGI,[24],> 100 µM
same,TGI,[25],> 100 µM
same,TGI,[26],> 100 µM
same,TGI,[27],> 100 µM
same,TGI,[28],> 100 µM
same,TGI,[29],> 100 µM
same,TGI,[30],> 100 µM
same,TGI,[31],> 100 µM
same,TGI,[32],> 100 µM
same,TGI,[33],> 100 µM
same,TGI,[34],> 100 µM
same,TGI,[35],> 100 µM
same,TGI,[36],> 100 µM
same,TGI,[37],> 100 µM
same,TGI,[38],> 100 µM
same,TGI,[39],> 100 µM
same,TGI,[40],> 100 µM
same,TGI,[41],> 100 µM
same,TGI,[42],> 100 µM
same,TGI,[43],> 100 µM
same,TGI,[44],> 100 µM
same,TGI,[45],> 100 µM
same,TGI,[46],> 100 µM
same,TGI,[47],> 100 µM
same,TGI,[48],> 100 µM
same,TGI,[49],> 100 µM
same,TGI,[50],> 100 µM
same,TGI,[51],> 100 µM
same,TGI,[52],> 100 µM
same,TGI,[53],> 100 µM
same,TGI,[54],> 100 µM
same,TGI,[55],> 100 µM
same,TGI,[56],> 100 µM
same,TGI,[57],> 100 µM
O=c1[nH]c(=O)n(C2OC(CO)C(O)C2O)c2ncc(-c3ccc(-c4ccccc4)cc3)nc12 (configuration not stated),TGI,[1],> 20 µM
same,TGI,[2],> 20 µM
same,TGI,[3],> 20 µM
same,TGI,[4],> 20 µM
same,TGI,[5],> 20 µM
same,TGI,[6],> 20 µM
same,TGI,[7],> 20 µM
same,TGI,[8],> 20 µM
same,TGI,[9],> 20 µM
same,TGI,[58],> 20 µM
same,TGI,[10],> 20 µM
same,TGI,[11],> 20 µM
same,TGI,[12],> 20 µM
same,TGI,[13],> 20 µM
same,TGI,[14],> 20 µM
same,TGI,[15],> 20 µM
same,TGI,[16],> 20 µM
same,TGI,[17],> 20 µM
same,TGI,[18],> 20 µM
same,TGI,[19],> 20 µM
same,TGI,[59],> 20 µM
same,TGI,[20],> 20 µM
same,TGI,[21],> 20 µM
same,TGI,[22],> 20 µM
same,TGI,[23],> 20 µM
same,TGI,[25],> 20 µM
same,TGI,[26],> 20 µM
same,TGI,[27],> 20 µM
same,TGI,[28],> 20 µM
same,TGI,[29],> 20 µM
same,TGI,[31],> 20 µM
same,TGI,[32],> 20 µM
same,TGI,[33],> 20 µM
same,TGI,[34],> 20 µM
same,TGI,[35],> 20 µM
same,TGI,[36],> 20 µM
same,TGI,[37],> 20 µM
same,TGI,[38],> 20 µM
same,TGI,[39],> 20 µM
same,TGI,[41],> 20 µM
same,TGI,[42],> 20 µM
same,TGI,[43],> 20 µM
same,TGI,[44],> 20 µM
same,TGI,[45],> 20 µM
same,TGI,[46],> 20 µM
same,TGI,[47],> 20 µM
same,TGI,[48],> 20 µM
same,TGI,[49],> 20 µM
same,TGI,[50],> 20 µM
same,TGI,[51],> 20 µM
same,TGI,[52],> 20 µM
same,TGI,[54],> 20 µM
same,TGI,[55],> 20 µM
same,TGI,[56],> 20 µM
same,TGI,[57],> 20 µM

# Source: PubChem BioAssay (NCI)
